As a reminder, the thermodynamic solubility is the concentration in solution at equilibrium with solid.

≈ marks a conversion by molar mass, not a printed value.

The nature of this series: Solubility test of Gatifloxacin (Test Example 1). It counts as physicochemical. The following applies: for solubility thermodynamic at 3 h: pH 6.5, aqueous buffer, thermodynamic from solid, pH 6.5, stirred 3 hours at room temperature. Here is the method:
According to the formulations shown in Table 1, a saturated solution of Gatifloxacin containing the given amount of each additive was prepared. The solution containing sodium dihydrogen phosphate, boric acid or malonic acid was adjusted to a pH of 6.5 with hydrochloric acid and sodium hydroxide, and then stirred for 3 hours at room temperature. The solution containing nicotinamide was adjusted to 6.0 with hydrochloric acid and sodium hydroxide, filled in glass ampoules and shaken for 2 days at room temperature. As a control, a saturated solution of Gatifloxacin containing no additive was prepared, its pH was adjusted to 6.5 with hydrochloric acid and sodium hydroxide, and stirred for 3 hours at room temperature. Each solution was filtered through a membrane filter (0.45 μm), and the filtrate (1 mL) was precisely measured and a diluent was added thereto to precisely make its volume up to 50 mL. The resultant solution (3 mL) was precisely measured, an internal standard solution (3 mL) was precisely added thereto, and a diluent was added thereto to precisely make its volume up to 20 mL to prepare a sample solution. The concentration of Gatifloxacin was measured in the sample solution (20 μL) under the following HPLC conditions. The solubility was converted in terms of Gatifloxacin 3/2 hydrate.
Detector: Ultraviolet absorptiometer (measurement wavelength: 280 nm) Column: Inertsil ODS-2 […], 4.6 mmφ×150 mm, GL Sciences Inc. Column temperature: 40° C. Mobile phase: acetonitrile (180 mL), water (810 mL) and triethylamine (10 mL) were mixed, and the pH was adjusted to 4.5 with phosphoric acid. Flow rate: 0.8 mL/min Injection amount: 20 μL Internal standard solution: a mobile phase solution of methyl p-aminobenzoate (1→10000) Diluent: Mixture of acetonitrile, water and phosphoric acid (200:800:0.8)

As to `COc1c(N2CCNC(C)C2)c(F)cc2c(=O)c(C(=O)O)cn(C3CC3)c12` (racemic) [Gatifloxacin, (±)-1-cyclopropyl-6-fluoro-1,4-dihydro-8-methoxy-7-(3-methyl-1-piperazinyl)-4-oxo-3-quinolinecarboxylic acid], the “Solubility of Gatifloxacin” value (nicotinamide 1 w/v %, pH 6.0, shaken 2 days at room temperature, in terms of 3/2 hydrate) was 1.41 w/v %. In addition, the thermodynamic solubility at 3 h was 7200 µg/mL (≈ 19.2 mM) (sodium dihydrogen phosphate dihydrate 0.5 w/v %, in terms of 3/2 hydrate); 9100 µg/mL (≈ 24.2 mM) (sodium dihydrogen phosphate dihydrate 1 w/v %, in terms of 3/2 hydrate); 5800 µg/mL (≈ 15.5 mM) (saturated solution containing boric acid 0.5 w/v %, boric acid 0.5 w/v %, in terms of 3/2 hydrate); approximately 6000 µg/mL (≈ 16 mM) (saturated solution containing boric acid 1 w/v %, boric acid 1 w/v %, in terms of 3/2 hydrate); 9600 µg/mL (≈ 25.6 mM) (saturated solution containing malonic acid 0.5 w/v %, malonic acid 0.5 w/v %, in terms of 3/2 hydrate); 9300 µg/mL (≈ 24.8 mM) (saturated solution containing malonic acid 1 w/v %, malonic acid 1 w/v %, in terms of 3/2 hydrate). The solubility (thermodynamic) at 3 h (saturated solution containing no additive (control), no additive (control), in terms of Gatifloxacin 3/2 hydrate) came to 5300 µg/mL (≈ 14.1 mM).
